Experimental findings from patent US20240344241A1, “PROTEINACEOUS MOLECULES AND USES THEREFOR” (THE UNIVERSITY OF QUEENSLAND, priority 2021, published 2024) are described below.

Bridge positions count the residues as written; N and C are the ends. Peptide text beside a SMILES is read from it.

This test deals with T1, Human β-FXIIa (Homo sapiens, UniProt P00748).
T1 construct: Human β-FXIIa was obtained from Molecular Innovations, together with human FXa, human FXIa, human α-thrombin, and human plasma kallikrein; purchased Molecular Innovations; host or cells: purified from human plasma
T1 sequence (P00748 373-615 limits assumed, other chains not shown): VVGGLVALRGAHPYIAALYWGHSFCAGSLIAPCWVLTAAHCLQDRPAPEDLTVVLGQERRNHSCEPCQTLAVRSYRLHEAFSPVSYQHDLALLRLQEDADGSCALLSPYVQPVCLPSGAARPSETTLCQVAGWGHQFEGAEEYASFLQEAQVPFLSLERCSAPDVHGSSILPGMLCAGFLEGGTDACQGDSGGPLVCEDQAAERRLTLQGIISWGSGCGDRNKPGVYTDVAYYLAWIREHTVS
The experiment in a line: FXIIa competitive inhibition assay, fluorescent substrate Boc-QGR-MCA. It counts as biochemical. The source says: Cyclic [I7F]MCoFx1 (also referred to as cyclic MCoFx6) was synthesized using solid phase peptide synthesis ([[…]] [SEQ ID NO: 97]). For this inhibitor, Tyr33 was mutated back to serine as per the original mRNA display screen (FIG. 1). Cyclic MCoFx6 was screened using a competitive inhibition assay, with the substrate being changed from a colorimetric substrate (Ac-QRFR-pNA in the data of Tables 7 and 10) to a fluorescent substrate (Boc-QGR-MCA) to allow the assay to be run with a lower concentration of enzyme. The assay was performed as described for Examples 2 and 3, except that the FXIIa concentration was 0.5 nM and the substrate concentration was 50 μM (KM=187 μM).
The new variants were screened using competitive inhibition assays, with the substrate being changed from a colorimetric substrate (Ac-QRFR-pNA in the data of Tables 7 and 10) to a fluorescent substrate (Boc-QGR-MCA) to allow the assay to be run with a lower concentration of enzyme. Assays were performed as described for Examples 2 and 3, except that the FXIIa concentration was 0.5 nM and the substrate concentration was 50 μM (KM=187 μM). […] The effect of amino acid substitutions within loop 2 (Arg12, Arg13), loop 5 (Ala25, Arg27) or loop 6 (Asp34) on the activity of cyclic MCoFx7 against FXIIa was determined (refer to Table 14). […] Additionally, mutating Arg to Glu (reversing the side chain charge) only led to two-fold weaker activity. The adjacent residue Arg13 could also be mutated to Lys with no change in activity. Within loop 5, mutating Ala25 to Lys produced a slight gain in activity, whereas the Ala to Pro mutation led to a slight decrease in activity. Both mutations at Arg27 led to losses in activity in the order of two-fold (His) or 3.2-fold (Gly).
The activity of acyclic and cyclic MCoFx1-5 and analogues thereof was assessed in competitive inhibition assays, as previously described in Swedberg et al. (2016) J Med Chem, 59: 7287-7292. Human β-FXIIa was obtained from Molecular Innovations, together with human FXa, human FXIa, human α-thrombin, and human plasma kallikrein. Human cationic trypsin and human plasmin were obtained from Sigma-Aldrich, and recombinant human matriptase was sourced from R&D Systems. Recombinant human urokinase (uPA) and recombinant human tissue plasminogen activator (tPA) were expressed in Expi293 cells, as previously described in Li et al. (2019) Chembiochem, 20: 46-50. FXIIa inhibition assays were performed in clear, low-binding 96-well plates using 250 μL (final volume) of assay buffer (0.1 M Tris-HCl pH 8.0, 0.1 M NaCl, 10 mM CaCl2 and 0.005% Triton X-100). Inhibitors were serially diluted and incubated with 10 nM FXIIa at room temperature to reach equilibrium. After adding 100 μM Ac-QRFR-pNA substrate (KM=162 μM), enzymatic activity was measured by monitoring release of the pNA moiety using a TECAN infinite M1000 Pro plate reader (A=405 nm, reading interval, 10 s; assay time course, 7 min). Assays were conducted in three times in duplicate. Substrate kinetic constants (Michaelis-Menten) and inhibition constants (Morrison K) were determined by non-linear regression using Prism 7 (GraphPad). Selectivity assays with off-target proteases were performed in a similar way, except that different concentrations of enzyme and substrate were used, as indicated in Table 16. For assays using a fluorescent substrate (peptide-4-methylcoumaryl-7-amide, MCA), black low-binding 96-well plates were used and activity was measured using a TECAN infinite M1000 pro plate reader (λex 360 nm, λem 460 nm, reading interval, 30 s; assay time course, 5-30 min).
In general, Ki refers to the equilibrium dissociation constant of an inhibitor or competing ligand from its target. A low value points to tighter binding. Compound `CC[C@H](C)[C@@H]1NC(=O)CNC(=O)CNC(=O)[C@H](CC(=O)O)NC(=O)[C@H](CO)NC(=O)CNC(=O)[C@H](CO)NC(=O)CNC(=O)[C@@H]2CSSC[C@@H]3NC(=O)[C@H](CC(=O)O)NC(=O)[C@H](CO)NC(=O)[C@H](CC(=O)O)NC(=O)[C@H](CCCNC(=N)N)NC(=O)[C@H]([C@@H](C)O)NC(=O)[C@@H]4CSSC[C@H](NC(=O)[C@H]([C@@H](C)CC)NC(=O)[C@H](CSSC[C@H](NC1=O)C(=O)N1CCC[C@H]1C(=O)N[C@@H](CCCNC(=N)N)C(=O)N[C@@H]([C@@H](C)CC)C(=O)NCC(=O)N[C@@H](CCCNC(=N)N)C(=O)N[C@@H](CC(C)C)C(=O)N4)NC(=O)[C@H](C)NC(=O)CNC(=O)[C@@H]1CCCN1C3=O)C(=O)N[C@@H](CCCNC(=N)N)C(=O)N[C@@H](C)C(=O)N[C@@H]([C@@H](C)O)C(=O)N[C@@H](CCCNC(=N)N)C(=O)N[C@@H](Cc1ccccc1)C(=O)N2` [Cyclic [R12T]MCoFx7] (cyclo(ACICRATRFCGSGSDGGICPRIGRLCTRDSDCPG); disulfide 2-19, 4-26, 10-32) returned a Ki of 0.065 ± 0.005 nM.
The same measure for `CC[C@H](C)[C@@H]1NC(=O)CNC(=O)CNC(=O)[C@H](CC(=O)O)NC(=O)[C@H](CO)NC(=O)CNC(=O)[C@H](CO)NC(=O)CNC(=O)[C@@H]2CSSC[C@@H]3NC(=O)[C@H](CC(=O)O)NC(=O)[C@H](CO)NC(=O)[C@H](CC(=O)O)NC(=O)[C@H](CCCNC(=N)N)NC(=O)[C@H](C(C)C)NC(=O)[C@@H]4CSSC[C@H](NC(=O)[C@H]([C@@H](C)CC)NC(=O)[C@H](CSSC[C@H](NC1=O)C(=O)N1CCC[C@H]1C(=O)N[C@@H](CCCNC(=N)N)C(=O)N[C@@H]([C@@H](C)CC)C(=O)NCC(=O)N[C@@H](CCCNC(=N)N)C(=O)N[C@@H](CC(C)C)C(=O)N4)NC(=O)[C@H](C)NC(=O)CNC(=O)[C@@H]1CCCN1C3=O)C(=O)N[C@@H](CCCNC(=N)N)C(=O)N[C@@H](C)C(=O)N[C@@H]([C@@H](C)O)C(=O)N[C@@H](CCCNC(=N)N)C(=O)N[C@@H](Cc1ccccc1)C(=O)N2` [Cyclic [R12V]MCoFx7] (cyclo(ACICRATRFCGSGSDGGICPRIGRLCVRDSDCPG); disulfide 2-19, 4-26, 10-32): 0.069 ± 0.005 nM; for `CC[C@H](C)[C@@H]1NC(=O)CNC(=O)CNC(=O)[C@H](CC(=O)O)NC(=O)[C@H](CO)NC(=O)CNC(=O)[C@H](CO)NC(=O)CNC(=O)[C@@H]2CSSC[C@@H]3NC(=O)[C@H](CC(=O)O)NC(=O)[C@H](CO)NC(=O)[C@H](CC(=O)O)NC(=O)[C@H](CCCCN)NC(=O)[C@H](CCCNC(=N)N)NC(=O)[C@@H]4CSSC[C@H](NC(=O)[C@H]([C@@H](C)CC)NC(=O)[C@H](CSSC[C@H](NC1=O)C(=O)N1CCC[C@H]1C(=O)N[C@@H](CCCNC(=N)N)C(=O)N[C@@H]([C@@H](C)CC)C(=O)NCC(=O)N[C@@H](CCCNC(=N)N)C(=O)N[C@@H](CC(C)C)C(=O)N4)NC(=O)[C@H](C)NC(=O)CNC(=O)[C@@H]1CCCN1C3=O)C(=O)N[C@@H](CCCNC(=N)N)C(=O)N[C@@H](C)C(=O)N[C@@H]([C@@H](C)O)C(=O)N[C@@H](CCCNC(=N)N)C(=O)N[C@@H](Cc1ccccc1)C(=O)N2` [Cyclic [R13K]MCoFx7] (cyclo(ACICRATRFCGSGSDGGICPRIGRLCRKDSDCPG); disulfide 2-19, 4-26, 10-32): 0.068 ± 0.003 nM; for `CC[C@H](C)[C@@H]1NC(=O)CNC(=O)CNC(=O)[C@H](CC(=O)O)NC(=O)[C@H](CO)NC(=O)CNC(=O)[C@H](CO)NC(=O)CNC(=O)[C@@H]2CSSC[C@@H]3NC(=O)[C@H](CC(=O)O)NC(=O)[C@H](CO)NC(=O)[C@H](CC(=O)O)NC(=O)[C@H](CCCNC(=N)N)NC(=O)[C@H](CCCNC(=N)N)NC(=O)[C@@H]4CSSC[C@H](NC(=O)[C@H]([C@@H](C)CC)NC(=O)[C@H](CSSC[C@H](NC1=O)C(=O)N1CCC[C@H]1C(=O)N[C@@H](CCCNC(=N)N)C(=O)N[C@@H]([C@@H](C)CC)C(=O)NCC(=O)N[C@@H](CCCNC(=N)N)C(=O)N[C@@H](CC(C)C)C(=O)N4)NC(=O)[C@H](C)NC(=O)CNC(=O)[C@@H]1CCCN1C3=O)C(=O)N[C@@H](CCCNC(=N)N)C(=O)N[C@@H](C)C(=O)N[C@@H]([C@@H](C)O)C(=O)NCC(=O)N[C@@H](Cc1ccccc1)C(=O)N2` [Cyclic [R27G]MCoFx7] (cyclo(ACICRATGFCGSGSDGGICPRIGRLCRRDSDCPG); disulfide 2-19, 4-26, 10-32): 0.21 ± 0.008 nM.
`CC[C@H](C)[C@@H]1NC(=O)CNC(=O)CNC(=O)[C@H](CC(=O)O)NC(=O)[C@H](CO)NC(=O)CNC(=O)[C@H](CO)NC(=O)CNC(=O)[C@@H]2CSSC[C@@H]3NC(=O)[C@H](CC(=O)O)NC(=O)[C@H](CO)NC(=O)[C@H](CC(=O)O)NC(=O)[C@H](CCCNC(=N)N)NC(=O)[C@H](CCCNC(=N)N)NC(=O)[C@@H]4CSSC[C@H](NC(=O)[C@H]([C@@H](C)CC)NC(=O)[C@H](CSSC[C@H](NC1=O)C(=O)N1CCC[C@H]1C(=O)N[C@@H](CCCNC(=N)N)C(=O)N[C@@H]([C@@H](C)CC)C(=O)NCC(=O)N[C@@H](CCCNC(=N)N)C(=O)N[C@@H](CC(C)C)C(=O)N4)NC(=O)[C@H](C)NC(=O)CNC(=O)[C@@H]1CCCN1C3=O)C(=O)N[C@@H](CCCNC(=N)N)C(=O)N[C@@H](C)C(=O)N[C@@H]([C@@H](C)O)C(=O)N[C@@H](Cc1c[nH]cn1)C(=O)N[C@@H](Cc1ccccc1)C(=O)N2` [Cyclic [R27H]MCoFx7] (cyclo(ACICRATHFCGSGSDGGICPRIGRLCRRDSDCPG); disulfide 2-19, 4-26, 10-32) showed a Ki of 0.12 ± 0.008 nM.
